Measured values as given in patent US5625031A, “Peptide inhibitors of the p33^cdk2 and p34^cdc2 cell cycle regulatory kinases and human papillomavirus E7 oncoprotein” (Bristol-Myers Squibb Company, priority 1994, dated 1997).
Like-named read-outs stand apart in the source and are kept apart here. Where a SMILES comes first, the peptide text is derived from it. Where no end group is shown, it is not given here.

Tests used:
[1] = molecular target: T1, p34^cdc2 (Homo sapiens, UniProt P06493); experiment: Histone H1 kinase activity of p107 30mer-sepharose bound versus immunoprecipitated p34^cdc2; type: biochemical; set-up: endogenous in cells; host or cells: HeLa
T1 sequence (P06493 whole entry): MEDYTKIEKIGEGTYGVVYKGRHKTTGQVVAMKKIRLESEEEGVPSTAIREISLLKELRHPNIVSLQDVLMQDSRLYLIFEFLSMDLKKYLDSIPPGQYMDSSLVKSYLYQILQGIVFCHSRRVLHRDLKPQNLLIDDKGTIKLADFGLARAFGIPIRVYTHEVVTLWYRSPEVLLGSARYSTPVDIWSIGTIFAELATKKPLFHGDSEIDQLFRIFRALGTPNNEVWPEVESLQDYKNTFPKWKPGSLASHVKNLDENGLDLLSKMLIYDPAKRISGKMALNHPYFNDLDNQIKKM
Method: (§1) Assay of p34^cdc2 Kinase Activity: Histone H1 kinase reactions were performed in 50 mM Tris, pH 8.0, 10 mM MgCl2, 0.5 mM DTT, 1 mM EGTA plus 0.1 mM ATP, 1 μCi γ-[^32 P]-ATP and 10 μg histone H1 (Boeringer Mannheim), and a source of p34^cdc2. Reactions were incubated at 30° C. for 20 minutes and stopped by the addition of protein gel sample buffer. Kinase reactions were separated by SDS-PAGE (12.5% gel). The bands were detected by autoradiography and the amount of ^32 P incorporated was quantitated using an Ambis Radioanalytic Imaging System.
In order to examine the effect of binding of p34^cdc2 to p107 30mer-sepharose on p34^cdc2 kinase activity, histone H1 kinase activities associated with p107 30mer-sepharose and immunoprecipitated p34^cdc2 were compared as follows. p34^cdc2 was bound to p107 30mer-sepharose as described in Example 2. Histone H1 kinase reactions were performed using either immunoprecipitated or p107 30mer-sepharose bound p34^cdc2. The amount of p34^cdc2 bound to p107 30mer-sepharose was compared with that contained within the immune complex by western blot. Two times the amount of immunoprecipitated p34^cdc2 used in the kinase reaction was blotted to facilitate easier detection. The amount of p34^cdc2 associated with the p107 30mer-sepharose was determined by densitometry to be ≥50 time greater than contained within the immune complexes.

[2] = molecular target: T1, p34^cdc2; experiment: Peptide inhibition of p34^cdc2 immune complex histone H1 kinase activity; type: biochemical; set-up: endogenous in cells; host or cells: HeLa; settings: for inhibition at 50 µM: 50 μM peptide, p34^cdc2 immune complex from HeLa cells, histone H1 substrate, read-out: p34^cdc2 Inhib. (%)
Method: (§2) HeLa Cell Lysates: HeLa cell extracts served as a source of p34^cdc2 and p33^cdk2 and were prepared as follows. HeLa cells were lysed in 20 mM N-[2-hydroxyethyl]piperazine-N'-[2-[…]] (HEPES), pH 7.0, 150 mM NaCl, 5 mM sodium vanadate, 10 mM Na4 P2 O7, 1 mM ZnCl2, 2 mM ethylene-diaminetetraacetic acid (EDTA), 2 mM ethylene glycol-bis(β-aminoethyl ether)-N,N,N',N'-tetraacetic acid (EGTA), 1 mM dithiothreitol (DTT), 0.25% (v:v) NP-40, 1 mM Benzamidine, 1 mM phenylmethylsulfonyl fluoride (PMSF) and 20 μg/ml each: N2 S2 O3, leupeptin, Antipan and Pepstatin, followed by centrifugation to remove cell debris.
Immunoprecipitation of p34^cdc2 : Immunoprecipitation of p34^cdc2 from HeLa cell extracts was performed using previously reported procedures (Harlow et al. (1988) in: Antibodies: A Laboratory Manual, ed. Harlow and Lane, Cold Spring Harbor: Cold Spring Harbor Laboratory, pp 421-470) and anti-p34^cdc2 antibody, G6 (Gibco, BRL). Immunoprecipitation by this method yields an activated kinase complex (Draetta et al. (1988), Cell 54:17-26).
as §1
As a further test of the association of p107 with p34^cdc2, and to define the minimal sequence necessary for interaction with p34^cdc2, the effect of p107 peptides on the p34^cdc2 immune complex histone H1 kinase activity was assessed. Both amino- and carboxy-terminal deletions were introduced into the original 30 amino acid peptide (see Table 1). The peptides were synthesized by standard methods and purified by HPLC. Immune complexes were formed as described in Example 4 and resuspended in kinase buffer plus 50 μM of the respective peptide solubilized in N,N-dimethylformamide, or an equal volume of solvent. After incubating the reactions for 15 minutes on ice, histone H1 and γ-[^32 P]-ATP were added and the kinase assays were performed and quantitated as described in Example 4.
The binding affinity of the 9mer peptide for p34^cdc2 was approximated by relating the percent inhibition of histone H1 kinase activity to peptide concentration. Reactions were performed as described in Example 4. The percent inhibition was quantitated using an Ambis Radioanalytic Imaging System. The percent inhibition was plotted versus the peptide concentration. In calculating a binding constant, it was assumed that the concentration of substrate and peptide were in vast excess of the p34^cdc2 protein, which was assumed to be limiting in the reaction.

[3] = molecular target: T1, p34^cdc2; experiment: ELISA based competition assay: p34^cdc2 kinase from cell extracts binding to a p107 30mer coated plate; set-up: endogenous in cells; HeLa per the general methods
Text: An ELISA based assay was developed to measure the activity of p107 peptides and their derivatives. A 96-well cluster plate coated with the p107 30mer binds to p34^cdc2 kinase from cell extracts. This binding is easily detectable with anti-p34^cdc2 antibodies and can be used to quantitate the affinity of the p107 wild type and mutant peptides for the p34^cdc2 kinase in addition to the kinase inhibition assay described in Example 7. A summary of all modifications to the original p107 peptides and their effect on binding and kinase inhibition is presented in Table 1. The affinity of the p107 9mer peptide for p34^cdc2 kinase is approximately 10 μM as measured by the ELISA based competition assay, which is in agreement with the binding constant approximated from the kinase inhibition assay as described in Example 7.

[4] = molecular target: T2, HPV18-E7 protein (Human papillomavirus type 18, UniProt P06788); experiment: biochemical; type: binding
T2 construct: made in house
T2 sequence (P06788 whole entry): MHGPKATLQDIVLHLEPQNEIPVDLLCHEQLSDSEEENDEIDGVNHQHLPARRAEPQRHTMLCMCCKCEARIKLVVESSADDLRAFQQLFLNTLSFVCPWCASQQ
Method: The association of bacterially expressed HPV18-E7 protein with the p107 30mer peptide was analyzed using an ELISA assay. In the experiment depicted in FIG. 3A, a 96-well cluster plate was coated with p107 30mer peptide and incubated with increasing concentration of a MBP-E7 fusion protein or the MBP protein as a control. […] In the experiment depicted in FIG. 3B, MBP-E7 fusion protein (100 ng) was incubated with a p107 30mer peptide-coated plate in the presence of increasing concentrations of free p107 9mer peptide.

[5] = molecular target: HPV16-E7 protein (Human papillomavirus type 16, UniProt P03129); settings: CaSki cell extract, western blot
HPV16-E7 protein, sequence (P03129 whole entry, the tested form may be a part): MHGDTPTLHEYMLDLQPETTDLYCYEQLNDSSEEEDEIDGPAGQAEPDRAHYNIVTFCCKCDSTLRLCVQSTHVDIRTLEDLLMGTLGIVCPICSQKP
Text: Rb and p107 form specific complexes with the adenovirus E1A oncoprotein and Rb forms a similar complex with the E7 oncoprotein human papillomavirus (HPV). In order to determine whether the p107 30mer peptide domain and Rb may interact with other tumor suppressor proteins or other cellular and viral ligands, p107 30mer peptide binding to cellular and bacterially expressed human papillomavirus (HPV)-E7 protein was examined. p107 30 amino acid peptide-sepharose, prepared as described in Example 2, was incubated with CaSki cell (HPV-16 positive cervical carcinoma) extract and assayed for the binding of E7 protein.

[6] = molecular target: T1, p34^cdc2; experiment: p107 30mer-sepharose pull-down from HeLa cell lysate, western blot with anti-p34^cdc2 antibody; type: binding; set-up: endogenous in cells; host or cells: HeLa
Method: as §2
In order to test whether the α-helix II domain is involved in the interaction of Rb, p107 and cyclin E with p34^cdc2, a 30 amino acid peptide from p107 (residues 692-721: […] [SEQ ID NO:11]) encompassing α-helix II, was synthesized and assayed for its ability to associate with p34^cdc2. […] The concentration of 30mer linked to the bead was 0.85 μmole/ml as determined by HPLC. […] The bound proteins were eluted with increasing concentrations of NaCl, separated by sodium dodecyl sulfate-polyacrylamidegel electrophoresis (SDS-PAGE) (12.5% gel) and transferred to polyvinylidene difluoride (PVDF) membranes. p34^cdc2 was detected by probing the membrane with anti-p34^cdc2 antibody, G6 (Gibco, BRL) (see, Draetta et al. (1988), supra).

[7] = Table 1 binding, assay not given, taken as ELISA competition for p34^cdc2 binding, read-out: IC50

Compound | inhibition at 50 µM [2] [%] | IC50 [3, 7] [µM] | further results
CC[C@H](C)[C@H](NC(=O)[C@H](Cc1ccc(O)cc1)NC(=O)[C@H](Cc1ccccc1)NC(=O)[C@H](C)NC(=O)[C@H](CS)NC(=O)[C@H](CC(C)C)NC(=O)[C@H](CC(C)C)NC(=O)[C@H](CC(C)C)NC(=O)[C@H](CCC(N)=O)NC(=O)[C@H](CC(=O)O)NC(=O)[C@H](CC(C)C)NC(=O)[C@H](Cc1c[nH]cn1)NC(=O)[C@H](CCCNC(=N)N)NC(=O)[C@H](CC(=O)O)NC(=O)[C@H](CCCCN)NC(=O)[C@H](CCSC)NC(=O)[C@H](CC(C)C)NC(=O)[C@H](CC(=O)O)NC(=O)[C@@H]1CCCN1C(=O)[C@H](CS)NC(=O)[C@H](Cc1c[nH]cn1)NC(=O)[C@@H](NC(=O)[C@H](CC(C)C)NC(=O)[C@@H](NC(=O)[C@H](Cc1ccccc1)NC(=O)[C@H](CCC(=O)O)NC(=O)[C@@H](N)Cc1ccccc1)[C@@H](C)O)C(C)C)C(=O)N[C@@H](CCSC)C(=O)N[C@@H](C)C(=O)N[C@@H](CCCCN)C(=O)O [30mer] (H-FEFTLVHCPDLMKDRHLDQLLLCAFYIMAK-OH) |  |  | specific activity of peptide bound enzyme relative to the specific activity of the immune complex ([1]; normalized for the amount of p34^cdc2 protein): 1.4%
C[C@H](NC(=O)[C@@H](N)CS)C(=O)N[C@@H](Cc1ccccc1)C(=O)N[C@@H](Cc1ccc(O)cc1)C(=O)O [NC4mer, CAFY] (H-CAFY-OH) | 0 |  | 
AFYIMAK [N7mer, AFYIMAK] | 0 |  | 
CAFYI [NC5mer, CAFYI] | 82 | 13 | 
CAFYIGSPKK [NC5mer-SPKK, CAFYIGSPKK] | 80 |  | 
DLMKDRHLDQLLLCAFYIMAK [21mer] | 70 |  | 
KDRHLDQLLLCAFYIMAK [18mer, KDRHLDQLLLCAFYIMAK] | 80 |  | 
LCAAYIMAK [715FA, LCAAYIMAK] | 0 | > 100 | 
LCAFAIMAK [716YA, LCAFAIMAK] | 0 | 40 | 
LCAFFIMAK [716YF, LCAFFIMAK] | 80 | 25 | 
LCAFY [C5mer, LCAFY] | 0 |  | 
LCAFYI [C6mer, LCAFYI] | 79 |  | 
LCAFYIM [C7mer, LCAFYIM] | 70 |  | 
LCAFYIMAK [9mer, LCAFYIMAK] | 90 | 9 | Kd [4]: ~0.001 µM; Kd ([2]; percent inhibition plotted versus peptide concentration, FIG. 2, read-out: kd calculated from the point of 50% inhibition of histone H1 kinase activity): ~10 µM; Kd ([3]; ELISA based competition assay, read-out: affinity for p34^cdc2 kinase): ~10 µM
LCAFYIMQK [719AQ, LCAFYIMQK] | 75 |  | 
LCAFYKMAK [717IK, LCAFYKMAK] | 0 | > 100 | 
LCAKYIMAK [715FK, LCAKYIMAK] | 0 | > 100 | 
LCAYYIMAK [715FY, LCAYYIMAK] | 20 | 45 | 
LCEFYIMAK [714AE, LCEFYIMAK] | 0 | 23 | 
LDQLLLCAFYIMAK [14mer, LDQLLLCAFYIMAK] | 80 |  | 
LFAFYIMAK [713CF, LFAFYIMAK] | 60 | 15 | decrease in the peptide's ability to inhibit histone H1 kinase activity ([2]; versus 9mer): 30%
PKKKRKVCAFYI [SV-NC5mer, PKKKRKVCAFYI] | 0 |  | 
RKRCAFYI [PKG-NC5mer, RKRCAFYI] | 0 |  | 
RRCAFYI [RR-NC5mer, RRCAFYI] | 0 |  | 
SPKKGCAFYI [SPKK-NC5mer, SPKKGCAFYI] | 0 |  | 
YIMAK [N5mer, YIMAK] | 0 |  | IC50 [3]: > 100 µM
p107 30mer-sepharose: p107 30mer covalently linked to CH-activated sepharose 4B (FEFTLVHCPDLMKDRHLDQLLLCAFYIMAK; cysteine pairing not given here; also: covalently linked to CH-activated sepharose 4B) |  |  | binding to HPV16-E7 protein [5]: did bind; binding to p34^cdc2 ([6]; HeLa cell lysate, western blot): binds; stability of the complex with p34^cdc2 to NaCl elution ([6]; elution with increasing concentrations of NaCl): stable to 2M NaCl; amount of p34^cdc2 associated relative to that within the immune complexes ([1]; western blot densitometry): ≥ 50 time greater
